Values of other authors as cited in patent US20260335255A1, “PHARMACEUTICAL COMPOSITIONS” (priority 2022, published 2026).
≈ marks a conversion by molar mass, not a printed value. Counter-ions that a name gives are not always drawn.

Key:
[1] = system: patients with depression; conditions: 0.5 mg/kg; 40 min infusion
[2] = system: patients; conditions: for side effects: b8: single subanesthetic dose
[3] = system: healthy volunteers
[4] = system: patients; conditions: anesthetic use; Pediatric Anesthesia 2005 15: 91-97

CNC1(c2ccccc2Cl)CCCCC1=O (racemic) [Ketamine]
concentration needed for therapeutic efficacy in patients with depression [1]: 185 ng/mL
solubility in water: 200 mg/mL (≈ 841 mM)
effect on memory ([2]; background): direct effects on free recall and recognition memory
side effects ([2]; background): transient dissociation and psychotomimetic side effects and hemodynamic changes
depressive symptoms ([2]; single subanesthetic dose): reduces depressive symptoms
thought disorder and withdrawal-retardation [3]: significant levels of thought disorder and withdrawal-retardation

CN[C@]1(c2ccccc2Cl)CCCCC1=O [S(+) ketamine]
duration of action compared with racemic ketamine [4]: significantly shorter acting than racemic ketamine

CNC1(c2ccccc2Cl)CCCCC1=O (centres unmarked) [ketamine hydrochloride, Ketamine Hydrochloride]
side effects ([2]; background): blurred vision, double vision, dream-like feeling, dizziness, drowsiness, jerky muscle movements, loss of appetite, nausea, vomiting, sleep problems such as insomnia
